Read-outs that look alike come from different tables or passages of the source.
Settings: amide bond, BOP, DCM, 25.0 °C

SMILES	ring closure, yield of all isomers (from COC(=O)C(N)Cc1cccc(OC[C@@H](NC(=O)c2cc(C(=O)O)cc(N(C)S(C)(=O)=O)c2)c2ccccc2)c1, 1.76 mM, 72.0 h) [%]	ring closure, yield of all isomers (from COC(=O)[C@H](Cc1cccc(OCCN)c1)NC(=O)c1cc(C(=O)O)cc(N(C)S(C)(=O)=O)c1, 2.0 h, 2 steps) [%]
COC(=O)C1Cc2cccc(c2)OC[C@H](c2ccccc2)NC(=O)c2cc(cc(N(C)S(C)(=O)=O)c2)C(=O)N1 (some centres unmarked)	62	–
COC(=O)[C@@H]1Cc2cccc(c2)OCCNC(=O)c2cc(cc(N(C)S(C)(=O)=O)c2)C(=O)N1	–	30

— patent publication US7371853
